Source: patent US20240166630A1, “INDOLE DERIVATIVES AS SEROTONERGIC AGENTS USEFUL FOR THE TREATMENT OF DISORDERS RELATED THERETO” (Mindset Pharma Inc., priority 2021, published 2024)

Columns and labels:
[1] = rapid first-pass metabolism by monoamine oxidase; cited from earlier work
[2] = Liver microsomes stability with NADPH, human; details: for Remaining Percentage (%) after 60 min Human: 2 μM; for half-life at 2 μM / microsomal CLint at 2 μM: human, microsomes
Description: (§1) The objective of this study was to estimate in vitro metabolic stability of representative compounds of the application in pooled human and male mouse liver microsomes. The concentrations of parent compounds in reaction systems were evaluated by LC-MS/MS for estimating the stability in pooled human and male mouse liver microsomes. The in vitro intrinsic clearances of test compounds were determined as well.
(§2) A master solution in the “Incubation Plate” containing phosphate buffer, ultra-pure H2O, MgCl2 solution and liver microsomes was made according to Table 3. The mixture was pre-warmed at 37° C. water bath for 5 minutes.
(§3) 40 μL of 10 mM NADPH solution was added to each well. The final concentration of NADPH was 1 mM. The negative control samples were prepared by replacing NADPH with 40 μL of ultra-pure H2O. Samples were prepared in duplicate. Negative controls were prepared in singlet.
(§4) The reaction was started with the addition of 4 μL of 200 μM test compounds or control compounds to each master solution to get the final concentration of 2 μM. This study was performed in duplicate.
(§5) Aliquots of 50 μL were taken from the reaction solution at 0, 15, 30, 45 and 60 minutes. The reaction solutions were stopped by the addition of 4 volumes of cold methanol with IS (100 nM alprazolam, 200 nM imipramine, 200 nM labetalol and 2 μM ketoprofen). Samples were centrifuged at 3,220 g for 40 minutes. Aliquot of 90 μL of the supernatant was mixed with 90 μL of ultra-pure H2O and then was used for LC-MS/MS analysis.
(§6) LC/MS analysis was performed for all samples from this study using a Shimadzu liquid chromatograph separation system equipped with degasser DGU-20A5R; solvent delivery unit LC-30AD; system controller SIL-30AC; column oven CTO-30A; CTC Analytics HTC PAL System; Mass spectrometric analysis was performed using an Triple Quad™ 5500 instrument.
(§7) All calculations were carried out using Microsoft Excel. Peak area ratios of test compound to internal standard (listed in the below table) were determined from extracted ion chromatograms.
(§8) All calculations were carried out using Microsoft Excel. Peak areas were determined from extracted ion chromatograms. The slope value, k, was determined by linear regression of the natural logarithm of the remaining percentage of the parent drug vs. incubation time curve.
(§9) The in vitro half-life (in vitro t1/2) was determined from the slope value:
(§10) Conversion of the in vitro t1/2 (min) into the in vitro intrinsic clearance (in vitro CLint, in μL/min/mg proteins) was done using the following equation (mean of duplicate determinations): […]

[3] = Liver microsomes stability with NADPH, mouse; details: for half-life at 2 μM / microsomal CLint at 2 μM: male, mouse, microsomes; for Remaining Percentage (%) after 60 min Mouse: mouse liver microsomes, with NADPH, 2 μM
Description: as §1, §2, §3, §4, §5, §6, §7, §8, §9, §10

[4] = Liver microsomes stability with NADPH, rat; details: for Remaining Percentage (%) after 60 min Rat: rat liver microsomes, with NADPH, 2 μM; for half-life at 2 μM / microsomal CLint at 2 μM: rat, microsomes
human 5-HT2A = human 5-HT2A (Homo sapiens, UniProt P28223); test: Radioligand binding assay on human 5-HT2A receptor ([3H]-ketanserin)
Sequence of human 5-HT2A (P28223 whole entry): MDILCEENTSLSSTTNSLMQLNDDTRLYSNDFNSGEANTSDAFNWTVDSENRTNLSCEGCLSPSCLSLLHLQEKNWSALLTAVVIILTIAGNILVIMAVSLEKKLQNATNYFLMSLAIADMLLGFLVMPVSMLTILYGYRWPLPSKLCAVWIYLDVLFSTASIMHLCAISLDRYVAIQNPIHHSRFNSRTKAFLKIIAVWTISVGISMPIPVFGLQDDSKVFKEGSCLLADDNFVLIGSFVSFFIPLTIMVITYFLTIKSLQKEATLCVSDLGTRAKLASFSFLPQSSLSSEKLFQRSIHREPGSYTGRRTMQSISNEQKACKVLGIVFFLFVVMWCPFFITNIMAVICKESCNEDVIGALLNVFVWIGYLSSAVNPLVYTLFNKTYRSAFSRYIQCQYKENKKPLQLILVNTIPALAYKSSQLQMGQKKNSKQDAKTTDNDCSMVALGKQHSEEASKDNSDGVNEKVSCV
Description: i. The assay buffer was prepared following the table below;
iii. Prepared (v/v) DMSO as follows: a. […] The plates were sealed and incubated at 4° C. for 3 hrs;
iv. Preparation of assay plates: a.
vi. The plates were sealed and incubated at 27° C. for 90 min.

[5] = molecular target: T1, human 5-HT2A (h5-HT2A) receptor (Homo sapiens, UniProt P28223); test: FLIPR assay, human 5-HT2A receptor under agonist mode; assay type: cell-based
T1 construct: expressed in transfected cells; kept under G418 and hygromycin B selection
T1 sequence (P28223 whole entry): as above
Description: I. Assessment of the Activated Effect of Compounds of Formula I-B Targeting on Human 5-HT2A (h5-HT2A) Receptor Under Agonist Mode:
1. The cells were cultured in cell culture medium (DMEM containing 10% FBS, 1× penicillin-streptomycin 300 μg/ml G418 and 100 μg/ml hygromycin B) at 37° C., 5% (v/v) CO2.
2. One day before the assays, the cells were detached using TrypLE™ Express and count cells using cell counter.
3. 20000 cells/well were seeded in 30 μl/well culture medium to a 384-well cell plate and incubated the cells overnight at 37° C., 5% (v/v) CO2.
4. On the assay day, 2×dye solution was prepared following the manual of the FLIPR® Calcium 6 Assay Kit: i. The dye was diluted with assay buffer (20 mM HEPES in 1×HBSS, PH7.4); ii. probenecid was added to the final concentration of 5 mM; iii. Vortexed vigorously for 1-2 minutes.
5. Medium was removed from cell plate by flicking the cell plate on towel papers.
7. The cell plate was placed on plate shaker, the plate agitated at 600 rpm for 2 minutes. The plate was incubated at 37° C. for 2 hours followed by additional 15-minute incubation at 25° C.
8. 3×compound was prepared in assay buffer: a. Reference compounds were diluted to required concentration with DMSO. The compounds were added to a 384-well compound plate; b. Serial dilutions were performed; c. 10 mM test compounds were added to the compound plate, 3-fold serial dilutions were performed. […] 20 μl/well assay buffer was added to the compound plate; f.
9. The cell plate, compound plate and tips were placed into FLIPR, 10 μl of 3× compound was transferred to the cell plate per well with FLIPR.
i. The normalized fluorescence reading (RFU) was calculated as shown follow, while Fmax and Fmin stand for maximum and minimum of calcium signal during defined time window: RFU=Fmax−Fmin
ii. The percentage activation was calculated by using following equation: […]
iii. EC50 was calculated by fitting % activation against log of compound concentrations with Hill equation using Xlfit.

[6] = human liver microsomes, with NADPH

SMILES	oral activity [1]	CLint (μL/min/mg protein) Human [2, 6]	Half-Life t1/2 (min) Human [2, 6]	Remaining Percentage (%) after 60 min Human [2, 6]	half-life at 2 μM [3]	microsomal CLint at 2 μM [3]	Remaining Percentage (%) after 60 min Mouse [3]	Remaining Percentage (%) after 60 min Rat [4]	half-life at 2 μM [4]	microsomal CLint at 2 μM [4]	half-life at 2 μM [2]	microsomal CLint at 2 μM [2]	IC50 (human 5-HT2A)	EC50 [5]
COc1ccc2[nH]cc(CCN(C)C)c2c1 [Compound 5-MeO-DMT, 5-methoxy-N,N-dimethyltryptamine, reference compound]	not orally active	101.08 μL/min/mg protein	13.75 min	4.82%	0.842 h	27.4 µL/min/mg	89.36%	16.02%	0.378 h	61 µL/min/mg	–	–	–	–
[2H]C([2H])(c1c[nH]c2ccc(OC)cc12)[C@H]1CCCN1C [I-B-10, (R)-5-methoxy-3-((1-methylpyrrolidin-2-yl)methyl-d2)-1H-indole]	–	–	–	78.24%	1.51 h	38.4 µL/min/mg	63.17%	35.87%	0.676 h	29 µL/min/mg	2.82 h	6.86 µL/min/mg	< 500 nM	< 100 nM
[2H]C([2H])([2H])N1CCC[C@@H]1Cc1c[nH]c2ccc(OC)cc12 [I-B-9, (R)-5-methoxy-3-((1-(methyl-d3)pyrrolidin-2-yl)methyl)-1H-indole]	–	–	–	–	–	–	–	–	–	–	–	–	< 500 nM	< 100 nM
[2H]C([2H])(c1c[nH]c2ccc(OC)cc12)[C@H]1CCCN1C([2H])([2H])[2H] [I-B-13, (R)-5-methoxy-3-((1-(methyl-d3)pyrrolidin-2-yl)methyl-d2)-1H-indole]	–	–	–	–	–	–	–	–	–	–	–	–	< 500 nM	< 100 nM
[2H]C([2H])(c1c[nH]c2ccccc12)[C@H]1CCCN1 [I-B-8, (R)-3-(pyrrolidin-2-ylmethyl-d2)-1H-indole]	–	–	–	91.11%	1.22 h	18.9 µL/min/mg	56.72%	38.89%	0.734 h	31.5 µL/min/mg	7.44 h	3.1 µL/min/mg	500 to 5000 nM	100 to 1000 nM
[2H]C([2H])([2H])Oc1ccc2[nH]cc(C[C@H]3CCCN3)c2c1 [I-B-14, (R)-5-(methoxy-d3)-3-(pyrrolidin-2-ylmethyl)-1H-indole]	–	–	∞	110.97%	8.15 h	10.9 µL/min/mg	91.85%	92.44%	8.82 h	4.33 µL/min/mg	–	–	< 500 nM	< 100 nM
[2H]C([2H])(c1c[nH]c2ccccc12)[C@H]1CCCN1C [I-B-2, (R)-3-((1-methylpyrrolidin-2-yl)methyl-d2)-1H-indole]	–	–	–	64.96%	1.02 h	47.1 µL/min/mg	50.81%	0.81%	0.144 h	46.3 µL/min/mg	1.61 h	9.64 µL/min/mg	< 500 nM	< 100 nM
[2H]C([2H])([2H])Oc1ccc2[nH]cc(C[C@H]3CCCN3C([2H])([2H])[2H])c2c1 [I-B-11, (R)-5-(methoxy-d3)-3-((1-(methyl-d3)pyrrolidin-2-yl)methyl)-1H-indole]	–	–	–	85.35%	1.36 h	40.6 µL/min/mg	60.16%	34.51%	0.651 h	29.5 µL/min/mg	4.38 h	5.01 µL/min/mg	< 500 nM	< 100 nM
[2H]C([2H])([2H])Oc1ccc2[nH]cc(C([2H])([2H])[C@H]3CCCN3)c2c1 [I-B-15, (R)-5-(methoxy-d3)-3-(pyrrolidin-2-ylmethyl-d2)-1H-indole]	–	–	–	–	–	–	–	–	–	–	–	–	< 500 nM	< 100 nM
[2H]C([2H])([2H])Oc1ccc2[nH]cc(C([2H])([2H])[C@H]3CCCN3C([2H])([2H])[2H])c2c1 [I-B-12, (R)-5-(methoxy-d3)-3-((1-(methyl-d3)pyrrolidin-2-yl)methyl-d2)-1H-indole]	–	–	–	78.24%	1.51 h	38.4 µL/min/mg	63.17%	35.87%	0.676 h	29 µL/min/mg	2.82 h	6.86 µL/min/mg	< 500 nM	< 100 nM
[2H]C([2H])(c1c[nH]c2ccc(OC)cc12)[C@H]1CCCN1 [I-B-16, (R)-5-methoxy-3-(pyrrolidin-2-ylmethyl-d2)-1H-indole]	–	–	–	85.35%	1.36 h	40.6 µL/min/mg	60.16%	34.51%	0.651 h	29.5 µL/min/mg	4.38 h	5.01 µL/min/mg	< 500 nM	< 100 nM
